Experimental data as given in patent US6488966B2, “Composition and method for reducing the risk of carcinogenesis” (The Trustees of Dartmouth College, priority 1998, dated 2002).
Like-named read-outs stand apart in the source and are kept apart here.

Columns and labels:
[1] = system: colorectal adenomas
From the text: Dartmouth was the coordinating center and the University of Minnesota was the pathology center. Human subjects committees at each center approved the study protocol; an independent safety and data monitoring committee reviewed the study semi-annually.
Staff at each clinical center monitored colonoscopy and pathology records at associated endoscopy units to identify patients with at least one histologically-confirmed large bowel adenoma removed within three months of recruitment, and with the entire large bowel mucosa subsequently examined and judged free of remaining polyps.
(§1) We reviewed data from 2,918 apparently eligible patients. […] The trial was double-blind; neither subjects nor study staff were told the subjects' treatment assignments.
Subjects received two follow-up colonoscopies as part of their routine clinical care, generally by the same physician who conducted the qualifying exam. The first follow-up examination was planned for approximately one year after the qualifying colonoscopy (about nine months after randomization), and a second follow-up examination was planned for thirty-six months after that. Large bowel endoscopy was otherwise discouraged unless clinically indicated (e.g., for rectal bleeding). Follow-up examinations were considered “adequate” if the entire large bowel mucosa was visualized, and no polyps remained at the end of the procedure. We designated the time from randomization to the first follow-up exam as the first study interval, and the period after the first follow-up exam up to (and including) the second follow-up colonoscopy as the second study interval.
At each colonoscopy, the endoscopist recorded the size and location of all mucosal lesions, using standard clinical technique. […] In cases of disagreement, we accepted the study pathologist's diagnosis.
The primary endpoint of the trial was the proportion of subjects having at least one adenoma detected during the second study interval, i.e., after the first follow-up colonoscopy, up to and including the second follow-up examination (including adenomas detected during interim endoscopies).
(§2) For our statistical analyses, we compared proportions using Fisher's exact test, and measured data using t-tests or rank tests (Snedecor and Cochran, Statistical Methods, Seventh Edition, Ames: Iowa State University Press, 1980). […] To address the first issue, we used overdispersed log-linear quasi-likelihood models programmed in SPlus (Seattle) to provide unadjusted and adjusted estimates and confidence intervals for the relative risk of at least one recurrent adenoma (McCullagh and Nelder, Generalized Linear Models (Second Edition), Chapman-Hall, 1989). […] Co-variates included age (linear term), gender, the lifetime number of adenomas before study entry, clinical center, and the length of the surveillance interval. Possible interactions were considered using product interaction terms. Subgroup analyses included investigation of subjects above and below the median of the calorie-adjusted intake (Willet, Nutritional Epidemiology, Oxford University Press, 1990) of selected nutrients. […] All P-values were two-sided.

[2] = Description: as §1
At enrollment and at the time of each of the two follow-up colonoscopies, we obtained venous blood specimens in mineral-free tubes. Serum was initially stored at −20° C. or lower, pending shipment to Dartmouth for storage at −70° C. until analysis. At enrollment and the end of the study, we also assessed subjects' diet with a validated food frequency questionnaire (Block et al., Am. J. Epidemiol., 124:453-69, 1986). Every six months, we sent patients questionnaires regarding adherence to study agents; use of medications, over-the-counter drugs and nutritional supplements; and the occurrence of symptoms, illnesses, and hospitalizations. Recruitment into the study began in November 1988 and ended in April 1992. Follow-up ended in December 1996.
as §2

[3] = at least one endoscopy, study exams
[4] = at or before the first follow-up
[5] = calcium vs placebo, 913 subjects with at least one study colonoscopy
[6] = calcium vs placebo, completed the study, 2nd study interval
[7] = calcium vs placebo, completed the trial, first study interval
[8] = calcium vs placebo, second study interval
[9] = completed the study, 1st or 2nd study interval
[10] = completed the study, 1st study exam
[11] = completed the study, 2nd study exam
[12] = completed the study, 2nd study interval (main risk period)

## O=C([O-])[O-].[Ca+2] [calcium, calcium carbonate]
[1]; at least one endoscopy, 1st or 2nd interval
  Mean number of adenomas: 0.92
[1]; [3]
  % with one or more adenomas: 42.3%
  Mean number of adenomas: 0.86
[1]; [4]
  participants with an adenoma with severe atypia removed: one
  patients with invasive cancer: 2
[1]; calcium vs placebo, adjusted, completed the study (832 subjects), 2nd study interval
  Ratio of the mean number of adenomas: 0.76
[1]; [5]
  unadjusted ratio of the average numbers of adenomas: 0.74
  unadjusted risk ratio of at least one adenoma after randomization: 0.85
[1]; [6]
  unadjusted ratio of the average number of adenomas: 0.75
  unadjusted risk ratio for at least one adenoma: 0.83
[1]; [7]
  unadjusted ratio of the average numbers of adenomas: 0.73
  unadjusted risk ratio for at least one adenoma: 0.77
[1]; [8]
  unadjusted risk ratio for at least one adenoma 0.5 cm or greater versus no adenomas: 0.87
  unadjusted risk ratio, largest adenoma less than 0.5 cm versus no adenomas: 0.75
[1]; [9]
  % with one or more adenomas: 44.7%
  Mean number of adenomas: 0.98
[1]; [10]
  % with one or more adenomas: 24.4%
  Mean number of adenomas: 0.40
[1]; completed the study, 1st study interval
  Mean number of adenomas: 0.43
[1]; [11]
  % with one or more adenomas: 30.1%
  Mean number of adenomas: 0.51
[1]; completed the study, 2nd study interval
  mean size of the largest adenoma: 0.4 cm
[1]; [12]
  % with one or more adenomas: 31.1%
  Mean number of adenomas: 0.55
[1]; completed the study, 2nd study interval (main risk period), listed as CALCIUM
  % with one or more adenomas: 31.1%
[1]; completed the study, main risk period (2nd study interval)
  number of patients with at least one colorectal adenoma: 127
[1]; completed the trial, up to and including the first follow-up exam
  number of subjects with at least one adenoma: 103
[1]; during the main risk period
  adenomas with severe atypia removed: no adenomas with severe atypia were removed
  subjects with invasive large bowel cancer: 1
[1]; second study interval
  subjects whose largest adenoma was less than 0.5 cm: 70
  subjects with an adenoma 0.5 cm or greater: 57
[1]; subjects who completed the study (409 calcium), 1st study interval (randomization to first follow-up colonoscopy)
  % with one or more adenomas: 25%
[1]; subjects who completed the study (409 calcium), 1st study interval (randomization to first follow-up colonoscopy), listed as CALCIUM
  % with one or more adenomas: 25.2%
[1]; subjects who had at least one endoscopy (454 calcium), 1st or 2nd interval
  % with one or more adenomas: 43.2%
[2]; after randomization
  Hospitalized: All cancer, %: (3.2) %
  Hospitalized: Cardiac disease, %: (10.8) %
  Hospitalized: Gastrointestinal disease, %: (8.2) %
  Hospitalized: Other, %: (27.2) %
  Hospitalized: Stroke, %: (2.6) %
  Stopped treatment because of perceived toxicity, %: (2.6) %
  patients diagnosed with definite or probable urinary stones: Two
[2]; after randomization, any reason
  Subjects Hospitalized, %: (37.1) %
[2]; calcium supplementation during the trial, listed as calcium carbonate
  toxicity (in words): minimal
[2]; calcium vs placebo
  frequency of digestive symptoms (including constipation): did not differ materially
  medical complaints and complications (in words): not associated with treatment assignment
